In one data set the test system is mir-143 binding sites. Kind of data set: pGL3-mir-143 sensor luciferase assay in HeLa cells. To be noted: HeLa cells, pGL3-mir-143 sensor with pCR3-pri-mir-143 (430). Type of data set: cell-based, human. The source says:
In one embodiment, an expression system based on the pGL3-Control (Promega Corp., Madison Wis.) vector containing a CMV promoter controlling expression of a luciferase reporter sequence was used in transient transfections of HeLa cells with plasmids expressing miRNA or pri-miRNA mimics. To assess the ability of miRNA mimics to bind and regulate the expression of the luciferase reporter gene, two reporter plasmids were constructed: 1) a synthetic DNA fragment comprising two sites perfectly complementary to mir-143 were inserted into the pGL3-Control luciferase reporter vector, to create the pGL3-mir-143 sensor plasmid, and 2) a DNA fragment comprising the 3′-UTR of the LIM domain only 4 (LMO4) gene (predicted to be regulated by mir-143) was inserted into pGL3-Control to create pGL3-LMO4; this fragment was PCR-amplified using a primer beginning at position 1261 of the LMO4 sequence (GenBank Accession NM_006769.2, incorporated herein as SEQ ID: 809) and the downstream primer hybridizing to the poly-A tail. In each of these plasmids, the target site was placed downstream of the luciferase coding sequence and upstream of the polyadenylation signal in the 3′-UTR of the luciferase reporter vector. The unmodified pGL3-Control luciferase reporter vector was used as a control.
HeLa cells were routinely cultured and passaged as described, and on the day before transfection with expression or reporter plasmids, the HeLa cells were seeded onto 24-well plates 50,000 cells/well. Cells were transfected according to standard published procedures with various combinations of plasmids using 2 μg Lipofectamine™ 2000 Reagent (Invitrogen) per μg of plasmid DNA, or, when transfecting oligomeric compounds, 1.25 μg of Lipofectamine™ 2000 Reagent per 100 nM oligonucleotide or double-stranded RNA. The luciferase signal in each well was normalized to the Renilla luciferase (RL) activity produced from a co-transfected plasmid, pRL-CMV, which was transfected at 0.5 μg per well. Cells were treated at various dosages (4 nM, 20 nM, and 100 nM) with the following oligomeric compound mimics: 1) “ds-mir-143,” 2) “ds-Control,” 3) “pCR3-pri-mir-143,” or 4) “pri-mir-control,” as described supra. In accordance with methods described in Example 12, supra, a luciferase assay was performed 48-hours after transfection. Briefly, cells were lysed in passive lysis buffer (PLB; Promega), and 20 ul of the lysate was then assayed for RL activity using a Dual Luciferase Assay kit (Promega) according to the manufacturer's protocol. The results below are an average of three trials and are presented as percent pGL3-Control luciferase expression normalized to pRL-CMV expression (RL).
In another embodiment, HeLa cells were transfected with 0.03 μg pGL3-mir-143 sensor plasmid and 0.01 μg pRL-CMV plasmid, and, in addition, (except those samples described below as “without mir-143 pri-miRNA,”) were also transfected with 0.01 μg of an expression plasmid designed to express a mir-143 pri-miRNA mimic comprising a larger 430-nt fragment of the mir-143 primary miRNA transcript, referred to as “pCR3-pri-mir-143 (430)” ([…]; SEQ ID NO: 871). […] To further evaluate the ability of the mir-143 pri-miRNA mimic to inhibit luciferase activity from the sensor plasmid, and to assess the ability of oligomeric compounds to interfere with the inhibition of pGL3-mir-143 sensor luciferase expression by the mir-143 pri-miRNA mimic, pGL3-mir-143 sensor-expressing HeLa cells treated with pCR3-pri-mir-143 (430) were additionally treated with varying concentrations (0-, 6.7- or 20 nM) of the following oligomeric compounds: 1) ISIS Number 327901 (SEQ ID NO: 319), a uniform 2′-MOE oligomeric compound targeting mir-143; 2) ISIS Number 342673 (SEQ ID NO: 758), a uniform 2′-MOE scrambled control; or 3) ISIS Number 327924 (SEQ ID NO: 342) targeting an unrelated miRNA (mir-129-2). […]

A further data set relates to mir-143 miRNA. Briefly: Northern blot of mature mir-143 in kidney of ob/ob mice. Type of data set: in vivo, mouse. To be noted: twice weekly at 25 mg/kg, saline = 100%. As for the experimental part: In addition, Northern blot analyses were performed to quantitate the expression of mature mir-143 in kidney samples of ob/ob mice treated with oligomeric compounds of the present invention. The mir-143 specific DNA oligonucleotide probe (SEQ ID NO: 319) described above was used to detect expression levels of the mir-143 miRNA in ob/ob mice treated (twice weekly at 25 mg/kg) with ISIS Numbers 327901, the uniform 2′-MOE oligomeric compound, or ISIS Number 340927, the 5-10-7 gapmer compound, both targeted to mir-143, versus saline treated animals or animals treated with ISIS 342672 (SEQ ID NO: 789), a uniform 2′-MOE scrambled negative control oligomeric compound. Expression levels were normalized against the U6 RNA and the expression levels of saline treated animals were set at 100%. […] In kidney samples from mice treated with the gapmer oligomeric compound targeting mir-143, ISIS Number 340927, a 23% reduction in in vivo expression levels of the mature mir-143 miRNA was observed.

In the oligonucleotide strings, read from the 5' end, every base follows the letter of its sugar. An asterisk marks phosphorothioate; unmarked linkages are phosphodiester. Other units and linkages are bracketed, terminal groups are in braces. A string of capitals states the bases alone. e = 2'-O-(2-methoxyethyl) (MOE); [5mC] = 5-methylcytosine

As to “327901 (antisense eT*eG*eA*eG*e[5mC]*eT*eA*e[5mC]*eA*eG*eT*eG*e[5mC]*eT*eT*e[5mC]*eA*eT*e[5mC]*eT*e[5mC]*eA) [compound 327901]”, the Relative luciferase activity came out at 4.0 in the data set with mir-143 binding sites (6.7 nM) and 6.4 with mir-143 binding sites (20 nM). Turning to “TGAGCTACAGTGCTTCATCTCA [ISIS 327901] (chemistry not given here) [uniform 2′-MOE PS; targets mir-143]”, in the data set on mir-143 miRNA, the “decrease in in vivo expression levels of the mature mir-143 miRNA” value is approximately 40%. For the substance “342673 (antisense eA*eG*eA*e[5mC]*eT*eA*eG*e[5mC]*eG*eG*eT*eA*eT*e[5mC]*eT*eT*eT*eA*eT*e[5mC]*e[5mC]*e[5mC]) [compound 342673]”, the Relative luciferase activity in the data set with mir-143 binding sites (6.7 nM) stood at 1.3; with mir-143 binding sites (20 nM), 1.5. In the case of “TGAGCTACAGTGCTTCATCTCA [ISIS 340927] (chemistry not given here) [5-10-7 2′-MOE gapmer PS; targets mature mir-143]”, in the data set on mir-143 miRNA, the “decrease in in vivo expression levels of the mature mir-143 miRNA” value is reported as 23%.

For the origin of these results see patent US8178506B2, “Oligomeric compounds and compositions for use in modulation of small non-coding RNAs” (Regulus Therapeutics Inc., priority 2003, dated 2012).
